Assays:
[1] = system: IL-6 secretion in 3T3-L1 adipocytes; assay: IL-6 secretion in t10-CLA-stimulated 3T3-L1 adipocytes; format: cell-based, murine
Procedure: The 3T3-L1 murine fibroblast model as used in Example 4 was used in this experiments. Test materials were added four hours prior to the addition of t10-CLA at a concentration of 50 μM. Following overnight incubation, the supernatant media were sampled for determination of IL-6 and adiponectin. The IL-6 secreted into the medium in response to […] stimulation was quantified using the Quantikine® Mouse IL-6 Immunoassay kit with no modifications (R&D Systems, Minneapolis, Minn.). […] All supernatant media samples were diluted 1:30 for quantification. Test materials and were assayed in duplicate, while solvent controls were replicated eight times. IL-6 and adiponectin secretion were represented relative to the IL-6 and adiponectin secretion of the t10-CLA only controls as the IL-6 and adiponectin index and differences among the means were analyzed by the student's t-test assuming a five percent probability of a type I error (Excel; Microsoft, Redmond, Wash.).

[2] = system: adiponectin secretion in 3T3-L1 adipocytes; assay: Adiponectin secretion in t10-CLA-stimulated 3T3-L1 adipocytes; format: cell-based, murine
Procedure: The 3T3-L1 murine fibroblast model as used in Example 4 was used in this experiments. Test materials were added four hours prior to the addition of t10-CLA at a concentration of 50 μM. Following overnight incubation, the supernatant media were sampled for determination of IL-6 and adiponectin. The adiponectin secreted into the medium was quantified using the Mouse Adiponectin Quantikine® Immunoassay kit with no modifications (R&D Systems, Minneapolis, Minn.). […] Test materials and were assayed in duplicate, while solvent controls were replicated eight times. IL-6 and adiponectin secretion were represented relative to the IL-6 and adiponectin secretion of the t10-CLA only controls as the IL-6 and adiponectin index and differences among the means were analyzed by the student's t-test assuming a five percent probability of a type I error (Excel; Microsoft, Redmond, Wash.).

Caco-2 monolayers = assay: t10-CLA-induced loss of TEER in Caco-2 monolayers; format: cell-based, human; settings: t10-CLA 50 μM control = 100; μg TQ equivalents/mL: Thymoquinone 5.0, NS8 0.11, NS9 0.99, NS10 0.012, NSSpent#2 0.0005; NSSpent#1 5 μg/mL
Text: The protocol for growing and differentiation the human Caco-2 colon andenocarcinoma cells was a modification of Protocol 3 as described by Yamashita et al. [[…]., and Furuyama, Y. 2002) New and better protocols for a short-term Caco-2 cell culture system, J Pharm Sci 91, 669-679]. Caco-2 Human Colon Adenocarcinoma cells were obtained from ATCC (Rockville, Md.; catalog #HTB-37) and maintained in a growth media: DMEM (Dulbecco's Modified Eagles Medium 1×) containing L-glutamine, glucose; Cellgro catalog #35-010CV with the following additions: (1) Penicillin (5,000 IU/mL)/Streptomycin (5,000 μg/mL) Cellgro catalog #30-001C1, (2) 10% FBS-Fetal Bovine Serum, Characterized; Hyclone catalog #SH30071.3, and (3) 1% NEAA-Non Essential Amino Acids; Cellgro catalog #25-025-CI; cells were cultured at 37 C in a humidified air-5% CO2 atmosphere in T175 flasks. BIOCOAT^R HTS Caco-2 Assay System kits (Becton Dickinson, N.J.; catalog #354801) consisting of 24-well fibrillar collagen coated inserts and feeder trays were used in all experiments and plated as follows. Media was removed from the T175 flasks and cells were washed with 10 mLs PBS (phosphate buffered saline 1× without Ca^++, without Mg^++; Cellgro #25-053-CI). […]

AMPK = AMPK activation (pT172-AMPK) in C2C12 myocytes; format: cell-based, Mouse; settings: 1 mM
Procedure: Mouse C2C12 myoblasts were obtained from American Type Culture Collection (Manassas, Va.), and were maintained in Dulbecco's modified Eagle's medium (DMEM) supplemented with 10% fetal bovine serum at 37° C. under a humidified atmosphere of 5% CO2.
C2C12 cells were seeded at an initial density of 6×10^4 cells/cm^2 in 24-well plates. For two days, the cells were allowed grow to reach confluence. Following confluence, the cells were forced to differentiate into myocytes by culturing in DMEM supplemented with 2% horse serum for seven days.
On Day 8 to 10 post differentiation, C2C12 myocytes were incubated in serum-free DMEM plus 0.5% BSA (bovine serum albumin) for three hours. […]
pT^172-AMPK was quantified using the Biosource AMPK Immunoassay Kit (Camarillo, Calif.) without modification. Protein content of the cell lysates was determined with the Active Motif fluorescent protein assay reagent (Carlsbad Calif., Hoefelschweiger, B. K., Duerkop, A., and Wolfbeis, O. S, Novel type of general protein assay using a chromogenic and fluorogenic amine-reactive probe. Anal Biochem 2005, 344, 122-9). A Packard Fluorocount spectrofluorometer (Model#BF 10000, Meridan, Conn.) was used for protein determination and a MEL312e BIO-KINETICS READER (Bio-Tek Instruments, Winooski, Vt.) was used for quantification of pT^172-AMPK. […]

[3] = t10-CLA 50 μM control = 100, μg TQ equivalents/mL: Thymoquinone 5.0, NS8 0.11, NS9 0.99, NS10 0.012, NSSpent#2 0.0005, NSSpent#1 5 μg/mL

| SMILES | increase in IL-6 secretion relative to controls ([1]; 50 μM, overnight) | IL-6 Index [1, 3] | reduction in adiponectin secretion relative to controls ([2]; 50 μM, overnight) | Adiponectin Index [2, 3] | Relative Loss of TEER (Caco-2 monolayers) | increase of pT172-AMPK relative to DMSO negative controls (AMPK; 30 min, average over ten independent assays (95% CI=1.26-2.21)) | activation of AMPK (AMPK; in assays run with N. sativa supercritical CO2 extracts) |
| --- | --- | --- | --- | --- | --- | --- | --- |
| CCCCC/C=C\C=C\CCCCCCCCC(=O)O (single isomer, unassigned) [t10-CLA, Trans-10,Cis12-Conjugated Linoleic Acid Isomer] | 8 fold | 100 ± 11 | 65% | 100 ± 14 | 100 ± 5.81 | – | – |
| NC(=O)c1ncn([C@@H]2O[C@H](CO)[C@@H](O)[C@H]2O)c1N [AICAR, 5-Aminoimidazole-4-carboxamide ribonucleoside] | – | – | – | – | – | 1.67 fold | 1.45 fold |

From patent US9180155B2, “Compositions from Nigella sativa” (Bio Nexus, Ltd, priority 2013, dated 2015)
